Experimental data: ChEMBL document CHEMBL3784954, “In vitro and in silico PTP-1B inhibition and in vivo antidiabetic activity of semisynthetic moronic acid derivatives” (Bioorg Med Chem Lett, 2016)
Activity calls are given as the source filed them. The calls are words filed in the database; no cut-off is given here.

What was measured:
Homo sapiens [1] = organism: Homo sapiens; test: Selectivity ratio of IC50 for recombinant human LMW-PTP isoform 1expressed in Escherichia coli TB1 to IC50 for recombinant human PTP-1B expressed in Escherichia coli TB1
[2] = target: T1, Low molecular weight phosphotyrosine protein phosphatase (Homo sapiens, UniProt P24666); test: Inhibition of recombinant human LMW-PTP isoform 2 expressed in Escherichia coli TB1
T1 sequence (P24666 whole entry): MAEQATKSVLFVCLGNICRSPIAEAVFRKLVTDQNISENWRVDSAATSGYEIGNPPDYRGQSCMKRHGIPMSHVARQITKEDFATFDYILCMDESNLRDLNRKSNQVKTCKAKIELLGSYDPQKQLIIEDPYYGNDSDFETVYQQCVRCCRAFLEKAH

[3] = target: T2, Tyrosine-protein phosphatase non-receptor type 1 (Homo sapiens) (UniProt P18031); test: Inhibition of recombinant human PTP-1B expressed in Escherichia coli TB1 at 50 uM using p-nitrophenyl phosphate as substrate
T2 sequence (whole entry): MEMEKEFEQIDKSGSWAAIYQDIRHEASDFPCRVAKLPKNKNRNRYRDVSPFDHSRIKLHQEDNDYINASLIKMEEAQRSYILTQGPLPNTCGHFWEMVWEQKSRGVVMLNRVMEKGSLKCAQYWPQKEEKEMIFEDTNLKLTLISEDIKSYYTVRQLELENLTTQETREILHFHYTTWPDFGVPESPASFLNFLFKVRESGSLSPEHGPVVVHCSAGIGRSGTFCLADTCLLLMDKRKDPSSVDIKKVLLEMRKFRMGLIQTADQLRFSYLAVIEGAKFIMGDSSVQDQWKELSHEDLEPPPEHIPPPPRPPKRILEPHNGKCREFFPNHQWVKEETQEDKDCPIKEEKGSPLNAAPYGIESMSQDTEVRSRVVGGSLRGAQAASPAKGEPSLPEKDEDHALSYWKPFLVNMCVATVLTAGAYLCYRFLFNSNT

[4] = target: T3, Tyrosine-protein phosphatase non-receptor type 2 (Homo sapiens, UniProt P17706); test: Inhibition of recombinant human TC-PTP expressed in Escherichia coli TB1
T3 sequence (P17706 whole entry): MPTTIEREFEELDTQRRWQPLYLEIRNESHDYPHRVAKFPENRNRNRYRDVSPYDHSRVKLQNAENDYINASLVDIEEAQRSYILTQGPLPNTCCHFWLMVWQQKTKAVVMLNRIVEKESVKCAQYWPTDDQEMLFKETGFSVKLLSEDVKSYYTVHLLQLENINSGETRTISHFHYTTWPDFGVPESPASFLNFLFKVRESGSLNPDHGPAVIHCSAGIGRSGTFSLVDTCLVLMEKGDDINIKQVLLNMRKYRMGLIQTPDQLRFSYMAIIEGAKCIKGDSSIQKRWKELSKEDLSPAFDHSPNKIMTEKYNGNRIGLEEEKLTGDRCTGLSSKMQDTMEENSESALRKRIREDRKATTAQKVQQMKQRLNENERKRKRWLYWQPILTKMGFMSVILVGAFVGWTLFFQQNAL

[5] = target: T1, Low molecular weight phosphotyrosine protein phosphatase; test: Inhibition of recombinant human LMW-PTP isoform 1 expressed in Escherichia coli TB1
[6] = Solubility of compound in DMSO; type: physicochemical
[7] = target: T4, Tyrosine-protein phosphatase non-receptor type 1 (Homo sapiens, UniProt P18031); test: Inhibition of recombinant human PTP-1B expressed in Escherichia coli TB1 using p-nitrophenyl phosphate as substrate
T4 sequence (P18031 whole entry): T2 sequence (whole entry)

[8] = target: T2, Tyrosine-protein phosphatase non-receptor type 1 (Homo sapiens); test: Partial reversible inhibition of recombinant human PTP-1B expressed in Escherichia coli TB1 at 10 times IC50 using p-nitrophenyl phosphate as substrate preincubated for 90 mins followed by 400 fold dilution
Homo sapiens [9] = organism: Homo sapiens; test: Selectivity ratio of IC50 for recombinant human LMW-PTP isoform 2 expressed in Escherichia coli TB1 to IC50 for recombinant human PTP-1B expressed in Escherichia coli TB1
[10] = target: T2, Tyrosine-protein phosphatase non-receptor type 1 (Homo sapiens); test: Reversible inhibition of recombinant human PTP-1B expressed in Escherichia coli TB1 at 10 times IC50 using p-nitrophenyl phosphate as substrate preincubated for 90 mins followed by 400 fold dilution
Rattus norvegicus [11] = test: Antidiabetic activity in non insulin dependent streptozotocin/nicotinamide-induced diabetic Wistar rat model assessed as decrease in blood glucose levels at 50 mg/kg, ig administered as single dose measured after 7 hrs by glucometer; type: functional; parameters: scale not given: the % may be the effect or the level left
Rattus norvegicus [12] = test: Antidiabetic activity in non insulin dependent streptozotocin/nicotinamide-induced diabetic Wistar rat model assessed as decrease in blood glucose levels at 50 mg/kg, ig administered as single dose measured after 3 hrs by glucometer; type: functional, organism-based
[13] = target: T4, Tyrosine-protein phosphatase non-receptor type 1; test: Competitive inhibition of recombinant human PTP-1B expressed in Escherichia coli TB1 using p-nitrophenyl phosphate as substrate by Lineweaver-Burk plot analysis

IC50 [2] | inhibition [3] | IC50 [4] | IC50 [5] | IC50 [7] | Compound | further results
– | Active | – | – | – | CCOC(=O)[C@]12CCC(C)(C)C=C1[C@H]1CC[C@@H]3[C@@]4(C)CCC(=O)C(C)(C)[C@@H]4CC[C@@]3(C)[C@]1(C)CC2 | –
62.5 µM | 100% | > 100 µM | 33.7 µM | 10.8 µM | COC(=O)[C@]12CCC(C)(C)C=C1[C@H]1CC[C@@H]3[C@@]4(C)CCC(=O)C(C)(C)[C@@H]4CC[C@@]3(C)[C@]1(C)CC2 | inhibition [10]: Active; Activity (Rattus norvegicus [11]): 40%; Activity (Rattus norvegicus [12]): Active; Ki [13]: 3.1 µM

More lines, now with the values behind:

Compound | IC50 [2] | inhibition [3] | IC50 [4] | IC50 [5] | IC50 [7] | further results
CC1(C)C=C2[C@H]3CC[C@@H]4[C@@]5(C)CCC6(OCCO6)C(C)(C)[C@@H]5CC[C@@]4(C)[C@]3(C)CC[C@@]2(CO)CC1 | 29.3 µM | 100% | > 100 µM | 16.1 µM | 7.5 µM | Ratio IC50 (Homo sapiens [1]): 2; solubility [6]: soluble; inhibition [8]: Active; Ratio IC50 (Homo sapiens [9]): 4
CC1(C)C=C2[C@H]3CC[C@@H]4[C@@]5(C)CCC(=O)C(C)(C)[C@@H]5CC[C@@]4(C)[C@]3(C)CC[C@@]2(C(=O)NC2CCCCC2)CC1 | – | Active | – | – | – | –
CC1(C)CC[C@]2(O)CC[C@]3(C)[C@H](CC[C@@H]4[C@@]5(C)CCC(=O)OC(C)(C)[C@@H]5CC[C@]43C)C23OC13 (stereo partly specified) | – | Active | – | – | – | –
